Test results reported in patent publication US8759400B2, “Histone deacetylase inhibitors for enhancing activity of antifungal agents” (MethylGene Inc., priority 2005, dated 2014).
Like-named read-outs stand apart in the source and are kept apart here.

Columns and labels:
C. albicans = experiment: Clinical isolates, CLSI M27-A2 broth microdilution and checkerboard; assay type: cell-based; details: Cpd 4 with voriconazole
C. tropicalis = experiment: Fungicidal activity (CFU counts); assay type: cell-based; details: voriconazole with Compound 4, data not shown
C. dubliniensis = experiment: Clinical isolates, CLSI M27-A2 broth microdilution and checkerboard; assay type: cell-based
Aspergillus terreus = experiment: Clinical isolates of other fungal species, checkerboard; assay type: cell-based
C. parapsilosis = experiment: Fungicidal activity (CFU counts); assay type: cell-based; details: voriconazole with Compound 4, data not shown
C. glabrata = experiment: Post-antifungal effect (PAFE); assay type: cell-based
Description: The post-antifungal effect (PAFE) is the time needed to achieve one log10 of cell growth after drug removal. One-two colonies are resuspended in 5 ml YPD. […] Cells are incubated at 30° C. overnight. In the morning, the optical density at 600 nm is read. Cells at A600 the closest but not surpassing 0.3 (early log-phase cells) are picked for further treatments as follows: […] Counts of CFU/ml are performed at time zero, before and after diluting the cells and at predetermined time points in order to determine the PAFE and the cidal potential of each drug combination (FIGS. 5-10).

A. fumigatus = experiment: Clinical isolates, CLSI M38-A broth microdilution and checkerboard; assay type: cell-based
Fusarium sp. = experiment: Clinical isolates of other fungal species, checkerboard; assay type: cell-based
Description: To determine the synergy between Compound 4 and azoles against other fungal species, a series of clinical isolates (Micheal Rinaldi, University of Texas Health Science Center) was tested by the checkerboard method as described in Example 1.

C. glabrata (ATCC 90030) = assay type: cell-based
HDAC = HDAC inhibitory activity in fungal protoplasts (Fluor-de-Lys); assay type: cell-based, Candida glabrata; details: C. glabrata protoplasts
Description: Protoplasts of C. albicans and C. glabrata are prepared by the […] method of Franzusoff et al.

C. parapsilosis (22019) = experiment: MIC and checkerboard synergy with azoles; assay type: cell-based, Candida parapsilosis
Description: For susceptibility studies, overnight cultures of both Candida species are diluted 1:100 in YEPD medium, grown for 4 h at 30° C., counted in a hemocytometer, then diluted to a concentration of 5×10^3 cells/ml. […] Synergy, determined by the checkerboard method, is defined as a decrease in MIC of antifungal agent that is more than additive of the MIC of the histone deacetylase inhibitor and the antifungal agent alone.

Aspergillus spp. = experiment: Clinical isolates, checkerboard, summary over 16 isolates; assay type: cell-based
[1] = Cpd 4 with fluconazole, C. dubliniensis clinical isolates
[2] = Cpd 4 with voriconazole, C. dubliniensis clinical isolates
[3] = Aspergillus spp. clinical isolates

Structure (SMILES): O=C(Cc1ccc(CCCCc2ccccc2)cc1)NO [Cpd 4]
- VOR/Cpd 4 FIC interpretation (C. albicans): (S) (S = synergy)
- increase in voriconazole fungicidal activity (C. tropicalis): 1.1-1.2 fold
- FLU/Cpd 4 FIC (C. dubliniensis; [1]): 2.0
- FLU/Cpd 4 FIC interpretation (C. dubliniensis; [1]): (I) (I = indifference)
- VOR/Cpd 4 FIC (C. dubliniensis; [2]): 2.0
- VOR/Cpd 4 FIC interpretation (C. dubliniensis; [2]): (I) (I = indifference)
- minimum Compound 4 concentration at which Compound 4 alone inhibited growth (number in brackets) (C. dubliniensis; FLU checkerboard, C. dubliniensis clinical isolates): 0.03 µg/mL
- minimum Compound 4 concentration at which Compound 4 alone inhibited growth (number in brackets) (C. dubliniensis; VOR checkerboard, C. dubliniensis clinical isolates): 0.12 µg/mL
- activity of Compound 4 alone (C. dubliniensis; all 4 clinical isolates of C. dubliniensis): potent activity alone
- Synergy with Cpd 4 (strains showing synergy/total strains tested) Itraconazole (Aspergillus terreus; Aspergillus terreus): 3/3
- Synergy with Cpd 4 (strains showing synergy/total strains tested) Voriconazole (Aspergillus terreus; Aspergillus terreus): 3/3
- MIC (Aspergillus terreus; Aspergillus terreus clinical isolates, read-out: Cpd 4 MIC): > 8 µg/mL
- increase in voriconazole fungicidal activity (C. parapsilosis): 1.1-1.2 fold
- PAFE (C. glabrata; Compound 4 combined with voriconazole, FIGS. 5 and 6C): ~1 h
- PAFE (C. glabrata; itraconazole combined with Compound 4, FIG. 7): 0.5 h
- ITR/Cpd 4 FIC interpretation (A. fumigatus; Cpd 4 with itraconazole): (S) (S = synergy)
- VOR/Cpd 4 FIC interpretation (A. fumigatus; Cpd 4 with voriconazole): (S) (S = synergy)
- minimum Compound 4 concentration at which Compound 4 alone inhibited growth (number in brackets) (A. fumigatus; ITR checkerboard): 4.0 µg/mL
- Synergy with Cpd 4 (strains showing synergy/total strains tested) Itraconazole (Fusarium sp.; Fusarium sp.): 1/3
- MIC (Fusarium sp.; Fusarium sp. clinical isolates, read-out: Cpd 4 MIC): 8 µg/mL
- Synergy with Cpd 4 (strains showing synergy/total strains tested) Voriconazole (Fusarium sp.; Fusarium sp., *Synergy occurs at ½ MIC of Cpd 4): 3/3*
- frequency of resistant mutants (C. glabrata (ATCC 90030); 4× synergistic MIC80 concentrations of Compound 4 and fluconazole): 2×10^−7
- frequency of resistant mutants (C. glabrata (ATCC 90030); 4× the synergistic MIC80 of Compound 4 and itraconazole): 1×10^−7
- resistant mutants detected (C. glabrata (ATCC 90030); Compound 4 and itraconazole at 2×MIC): no mutants were detected
- HDAC inhibition IC50 (HDAC): >20 (20%) μg/ml
- HDAC inhibition, per cent in parentheses beside IC50 >20 (HDAC; concentration not given): >20 (20%)
- MIC (C. parapsilosis (22019); Lodderomyces parapsilosis, read-out: Cpd 4 MIC): 0.39 to 0.78 µg/mL
- Cpd 4 Conc for 4-fold synergy (C. parapsilosis (22019); with ketoconazole): 0.2 µg/mL
- Cpd 4 Conc for 4-fold synergy (C. parapsilosis (22019); with voriconazole): 0.049 µg/mL
- Compound 4 concentrations required for 4-fold reductions in azole MIC (Aspergillus spp.; [3]): 1 to 8 µg/mL
- in vitro antagonism of Compound 4-azole combination (Aspergillus spp.; [3]): none of the isolates tested
- number of isolates with additivity (Aspergillus spp.; Compound 4 with VOR and ITR, of 16 Aspergillus spp. isolates): 4
- number of isolates with synergy (Aspergillus spp.; Compound 4 with both VOR and ITR, of 16 Aspergillus spp. isolates): 11
